Assay results: patent US20240261302A1, “METHODS OF TREATING NEURODEGENERATIVE DISEASES OR CONDITIONS” (FloraScience Inc., priority 2023, published 2024)

How the values were obtained:
HT22 cells [1] = assay: Oxytosis/ferroptosis assay with erastin (Table 2); assay type: cell-based; conditions: Mus musculus, HT-22; erastin as inducer; method not given; read-out: Observed EC50 erastin
HT22 cells [2] = assay: Ferroptosis Assay (RSL3-induced cell death, MTT); assay type: cell-based, mouse; conditions: Mus musculus, HT-22; HT22 cells, 1 hr pretreatment, 50 nM RSL3, 16 hr, MTT; read-out: Observed EC50 RSL3
Description: Ferroptosis Assay: HT22 cells were seeded at 3,000 cells/well in 96-well tissue culture plates in DMEM plus 10% FBS and 1% antibiotics. After 24 hr of plating, the cells were pretreated with different concentrations of test compounds or a vehicle control for 1 hr followed by coincubation with 50 nM RSL3 to induce the cell death cascade. After 16 hr of treatment, cell viability was measured by the MTT assay. Optical absorbance was measured at 570 nm on a SpectraMax M5 microplate reader. Samples were analyzed in eight to sixteen wells per independent experiment (n=8-16). Results were presented as the percentage of the controls with vehicle alone.

Structure (SMILES) | EC50 (HT22 cells [1]) [µM] | EC50 (HT22 cells [2]) [nM]
CCCCCc1cc(O)c2c(c1)OC(C)(C)C1CC=C(C)CC21 (centres unmarked) [D8-THC, 6,6,9-trimethyl-3-pentyl-6a,7,10,10a-tetrahydro-6H-benzo[c]chromen-1-ol] | 2.6 | 800
CCCCCc1cc(O)c2c(c1)OC1(C)CCC(=C(C)C)C2C1 (centres unmarked) [D4(8)-iso-THC, 3,4,5,6-tetrahydro-2-methyl-5-(1-methylethylidene)-9-pentyl-2,6-methano-2H-1-benzoxocin-7-ol] | 1.5 | 340
Cc1cc(O)c2c(c1)OC(C)(C)c1ccc(C)cc1-2 [CBN-C1, 3-methyl-6,6,9-trimethyl-6H-benzo[c]chromen-1-ol] | 6.9 | 2200
C=C(C)C1CCC2(C)CC1c1c(O)cc(CCCCC)cc1O2 (centres unmarked) [D8(9)-iso-THC, 3,4,5,6-tetrahydro-2-methyl-5-(1-methylethenyl)-9-pentyl-2,6-methano-2H-1-benzoxocin-7-ol] | 2.1 | 330
CCCc1cc(O)cc2c1-c1cc(C)ccc1C(C)(C)O2 [Abn-CBNV, 6,6,9-trimethyl-1-propyl-6H-benzo[c]chromen-3-ol] | 9.5 | 4900
CCCc1cc(OC(C)=O)c2c(c1)OC(C)(C)c1ccc(C)cc1-2 [CBNV-OAc, 6,6,9-trimethyl-3-propyl-6H-benzo[c]chromen-1-yl acetate] | 4 | 1600
C=C(C)C1CCC(C)=CC1c1c(OC(C)=O)cc(CCCCC)cc1OC(C)=O (centres unmarked) [CBD-(OAc)2, 5′-methyl-4-pentyl-2′-(prop-1-en-2-yl)-1′,2′,3′,4′-tetrahydro-[1,1′-biphenyl]-2,6-diyl diacetate] | 9.1 | 2400
CCCCCc1cc(O)c(CCC(C)CCCC(C)C)c(O)c1 (centres unmarked) [H4CBG, 2-(3,7-dimethyloctyl)-5-pentylbenzene-1,3-diol] | 0.7 | 400
CCCCCc1cc2c3c(c1)OC(C)(C)C1CCC(C)(CC31)O2 (centres unmarked) [CBT, 1,5,5-trimethyl-9-pentyl-6,15-dioxa-tetracyclo[9.3.1.0^4,13.0^7,12]-pentadeca-7(12),8,10-triene] | > 10 | > 10000
CCCCCc1cc(O)c(-c2cc(C)ccc2C(C)C)c(O)c1 [H2CBND, 2,6-dihydroxy-4-pentyl-2′-isopropyl-5′-methyl-1,1′-biphenyl] | 5.7 | 2400
CCCCCc1cc2c(c(O)c1C(=O)O)-c1cc(C)ccc1C(C)(C)O2 [CBNA, 1-hydroxy-6,6,9-trimethyl-3-pentyl-benzo[c]chromene-2-carboxylic acid] | > 10 | > 10000
C=C(C)[C@@H]1CCC(C)=C[C@H]1c1c(O)cc(CCC)cc1O [CBDV, 2-[(1R,6R)-6-Isopropenyl-3-methylcyclohex-2-en-1-yl]-5-propylbenzene-1,3-diol] | 3.8 | 1000
CCCCCc1cc(O)c2c(c1)OC(C)(C)C1CCC(C)=CC21 (centres unmarked) [D9-THC, 6,6,9-trimethyl-3-pentyl-6a,7,8,10a-tetrahydro-6H-benzo[c]chromen-1-ol] | 9.4 | 4100
CCCCCc1cc(O)c2c(c1)OC(C)(C)c1ccc(CO)cc1-2 [11-OH-CBN, 9-(hydroxymethyl)-6,6-dimethyl-3-pentyl-6H-benzo[c]chromen-1-ol] | 4.7 | 1300
CCCCCc1cc(O)c2c(c1)OC(C)(CCC=C(C)C)C=C2 (centres unmarked) [CBC, 2-Methyl-2-(4-methylpent-3-enyl)-7-pentyl-5-chromenol] | 8.7 | 1100
C=C(C)[C@@H]1CCC(C)=C[C@H]1c1c(O)cc(CCCCC)c(C(=O)O)c1O [CBDA, (1′R,2′R)-2,6-Dihydroxy-5′-methyl-4-pentyl-2′-(prop-1-en-2-yl)-1′,2′,3′,4′-tetrahydro[1,1′-biphenyl]-3-carboxylic acid] | > 10 | 9300
C=C(C)[C@@H]1CCC(C)=C[C@H]1c1c(O)cc(CCCCC)cc1O [CBD, 2-[(1R,6R)-6-Isopropenyl-3-methylcyclohex-2-en-1-yl]-5-pentylbenzene-1,3-diol] | 8.8 | 860
CCCCCCCc1cc(O)c2c(c1)OC(C)(C)c1ccc(C)cc1-2 [CBN-C7, 3-heptyl-6,6,9-trimethyl-6H-benzo[c]chromen-1-ol] | 3.8 | 2000
CCCCCc1cc(O)c2c(c1)O[C@H]1[C@@H]2[C@H](C(C)C)CC[C@]1(C)O [H2CBE, (5aS,6S,9S,9aR)-9-isopropyl-6-methyl-3-pentyl-5a,6,7,8,9,9a-hexahydrodi-benzo[b,d]furan-1,6-diol] | 9.2 | 3500
CCCCCc1cc(OC(C)=O)c2c(c1)OC(C)(C)c1ccc(C)cc1-2 [CBN-OAc, 1-acetoxy-6,6,9-trimethyl-3-pentyl-benzo[c]chromene] | 1.9 | 1300

Structure (SMILES) | EC50 (HT22 cells [1]) [µM] | EC50 (HT22 cells [2]) [nM]
CCCCCc1cc(O)c2c(c1)O[C@]1(C)CC[C@@H](C(C)C)[C@H]2C1 [iso-HHC, (2α,5α,6α)-(−)-3,4,5,6-tetrahydro-2-methyl-5-(1-methylethyl)-9-pentyl-2,6-methano-2H-1-benzoxocin-7-ol] | 2.4 | 800
CCCCCc1cc(O)c2c(c1)OC(C)(C)C1=C2CC(C)CC1 (centres unmarked) [D6a,10a-THC, 6,6,9-trimethyl-3-pentyl-7,8,9,10-tetrahydro-6H-benzo[c]chromen-1-ol] | 1.8 | 700
CCCc1cc(O)c2c(c1)OC(C)(C)C1CCC(C)=CC21 (centres unmarked) [THCV, 6,6,9-Trimethyl-3-propyl-6a,7,8,10a-tetrahydro-6H-benzo[c]chromen-1-ol] | 3.4 | 780
CCCCCc1cc(O)c2c(c1)OC1(C)CCC3C1C2C3(C)C (stereo not drawn) [CBL, (1aR-(1a alpha,3a alpha,8b alpha,8calpha))-1a,2,3,3a,8b,8c-hexahydro-1,1,3a-trimethyl-6-pentyl-1H-4-oxabenzo(f)-cyclobut(cd)inden-8-ol] | 3.3 | 770
C=C(C)[C@@H]1CC[C@](C)(O)[C@H]2Oc3cc(CCCCC)cc(O)c3[C@@H]12 [CBE, (5aS,6S,9R,9aR)-6-methyl-3-pentyl-9-prop-1-en-2-yl-7,8,9,9a-tetrahydro-5aH-dibenzofuran-1,6-diol] | > 10 | > 10000
CCCCCc1cc(O)c2c(c1)OC(C)(C)C1CCC(C)C=C21 (centres unmarked) [D10-THC, 6,6,9-trimethyl-3-pentyl-6a,7,8,9-tetrahydro-6H-benzo[c]chromen-1-ol] | 0.62 | 130
CCCCCc1cc(O)c([C@H]2CC(C)CC[C@@H]2C(C)C)c(O)c1 (stereo partly drawn) [H4CBD, 2-[(1S,6R)-6-Isopropyl-3-methylcyclohexyl]-5-pentylbenzene-1,3-diol] | 0.3 | 400
C=C(C)[C@@H]1CCC(C)=C[C@H]1c1c(O)cc(O)cc1CCCCC [Abn-CBD, 4-[(1R,6R)-3-methyl-6-(1-methylethenyl)-2-cyclohexen-1-yl]-5-pentyl-1,3-benzenediol] | 8 | 3900
CCCCCc1cc(O)c(C/C=C(\C)CCC=C(C)C)c(O)c1 [CBG, 2-[(2E)-3,7-Dimethylocta-2,6-dienyl]-5-pentyl-benzene-1,3-diol] | 10.8 | 3200
CCCCCc1cc(O)c(C/C=C(\C)CCC=C(C)C)c(O)c1C(=O)O [CBGA, 3-[(2E)-3,7-Dimethylocta-2,6-dien-1-yl]-2,4-dihydroxy-6-pentylbenzoic acid] | > 10 | > 10000
CCCCCc1cc(O)c([C@H]2C=C(C)CC[C@@H]2C(C)C)c(O)c1 [H2CBD, 2-[(1R,6R)-6-Isopropyl-3-methylcyclohex-2-en-1-yl]-5-pentylbenzene-1,3-diol] | 4.8 | 1100
CCCCCc1cc(OC)c2c(c1)OC(C)(C)c1ccc(C)cc1-2 [CBN-OMe, 1-methoxy-6,6,9-trimethyl-3-pentyl-benzo[c]chromene] | > 10 | > 10000
CCCCCc1cc(O)c2c(c1)O[C@@H]1CCC(C)=C[C@]21C(C)C [D8(9)-iso-THCBF, (5aR,9aR)-9a-isopropyl-8-methyl-3-pentyl-5a,6,7,9a-tetra-hydrodibenzo[b,d]furan-1-ol] | 5.1 | 1400
CCCCc1cc(O)c2c(c1)OC(C)(C)c1ccc(C)cc1-2 [CBN-C4, 3-butyl-6,6,9-trimethyl-6H-benzo[c]chromen-1-ol] | 2.1 | 1100
CCCCCc1cc(O)c2c(c1)OC(C)(C)C1CCC(C)CC21 (centres unmarked) [HHC, 6,6,9-trimethyl-3-pentyl-6a,7,8,9,10,10a-hexahydro-6H-benzo[c]chromen-1-ol] | 0.5 | 300
CCCCCc1cc2c(c(O)c1C(=O)O)[C@@H]1C=C(C)CC[C@H]1C(C)(C)O2 [THCA, (6aR,10aR)-1-Hydroxy-6,6,9-trimethyl-3-pentyl-6a,7,8,10a-tetrahydro-6H-benzo[c]chromene-2-carboxylic acid] | > 10 | > 10000
C=C(C)c1ccc(C)cc1-c1c(O)cc(CCCCC)cc1O [CBND, 2,6-dihydroxy-4-pentyl-2′-isopropenyl-5′-methyl-1,1′-biphenyl] | 15.4 | 7700
CCCCCCc1cc(O)c2c(c1)OC(C)(C)c1ccc(C)cc1-2 [CBN-C6, 3-hexyl-6,6,9-trimethyl-6H-benzo[c]chromen-1-ol] | 2 | 900
CCCCCc1cc(O)c(-c2cccc(C)c2)c(O)c1 [4-DI-CBND, 3′-methyl-4-pentyl-[1,1′-biphenyl]-2,6-diol] | 9.6 | 4200
CCc1cc(O)c2c(c1)OC(C)(C)c1ccc(C)cc1-2 [CBN-C2, 3-ethyl-6,6,9-trimethyl-6H-benzo[c]chromen-1-ol] | 5.6 | 1800
